The source of these data is patent US20230257413A1, “ARTIFICIAL NUCLEIC ACID, METHOD FOR PRODUCING SAME, AND USE THEREOF” (RIKEN GENESIS CO., LTD., priority 2020, published 2023).

Series [1] concerns single-stranded DNA (5′-d(agcaaaaaacgc)-3′; SEQ ID NO: 6) (a sense strand). Kind of series: Measurement of melting temperatures (Tm) of oligonucleotides, double strand forming capability with single-stranded DNA. In kind it is binding. The note with it: antisense 5′-d(gcgnnnnnngct)-3′ (SEQ ID NO: 4); 100 mM NaCl, 10 mM sodium phosphate buffer pH 7.2, 4 μM each strand.
Series [2] has as its system single-stranded RNA (5′-r(agcaaaaaacgc)-3′; SEQ ID NO: 7) (a sense strand). Briefly: Measurement of melting temperatures (Tm) of oligonucleotides, double strand forming capability with single-stranded RNA. The note with it: antisense 5′-d(gcgnnnnnngct)-3′ (SEQ ID NO: 4); 100 mM NaCl, 10 mM sodium phosphate buffer pH 7.2, 4 μM each strand. The format is binding.

Turning to “(R)EDM-T: SEQ ID NO: 4, n = formula (6) unit: thymin-1-yl, n 1, R^3 3-(N,N-dimethylamino)propyl, R^4 (R)-ethyl, R^5 H (DNA AGCAAAAAACG; n (R)EDM-T modified units, chemistry not fully specified; the letters are possibly those of the target site)”, the “Tm value (target: ssDNA)” value in series [1] amounted to 77 °C. In series [2], the “Tm value (target: ssRNA)” value is 89 °C.

As for “DNA-T: 5′-d(gcgnnnnnngct)-3′ (SEQ ID NO: 4), n = formula (7) unit, Base thymin-1-yl, R^a H (natural DNA T) (DNA AGCAAAAAACGC; n natural T, chemistry not fully specified; the letters are possibly those of the target site)”, the “Tm value (target: ssDNA)” value in series [1] was 52 °C. Further, in series [2], the “Tm value (target: ssRNA)” value is 48 °C.
